From BindingDB's records for doi:10.1021/acs.jmedchem.7b00876 (University of Wisconsin-Madison, 2017) come the findings set out here.

The assay has as its target T1, Parathyroid hormone/parathyroid hormone-related peptide receptor (Homo sapiens, UniProt Q03431).
T1 sequence (Q03431 whole entry): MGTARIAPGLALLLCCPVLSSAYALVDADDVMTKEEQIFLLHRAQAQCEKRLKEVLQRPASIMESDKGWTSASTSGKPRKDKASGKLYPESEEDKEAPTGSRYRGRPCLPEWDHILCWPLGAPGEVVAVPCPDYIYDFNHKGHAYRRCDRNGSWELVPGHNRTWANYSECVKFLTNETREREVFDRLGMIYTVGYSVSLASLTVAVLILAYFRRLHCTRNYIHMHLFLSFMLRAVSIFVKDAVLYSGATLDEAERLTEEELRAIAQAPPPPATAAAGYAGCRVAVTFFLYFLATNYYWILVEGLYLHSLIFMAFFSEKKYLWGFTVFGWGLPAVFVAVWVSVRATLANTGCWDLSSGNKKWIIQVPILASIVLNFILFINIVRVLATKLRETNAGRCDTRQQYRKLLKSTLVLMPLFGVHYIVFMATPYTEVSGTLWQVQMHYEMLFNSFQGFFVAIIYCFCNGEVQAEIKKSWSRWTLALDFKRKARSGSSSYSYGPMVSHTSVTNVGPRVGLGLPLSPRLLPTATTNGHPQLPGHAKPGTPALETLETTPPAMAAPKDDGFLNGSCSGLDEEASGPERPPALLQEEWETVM
Description: Agonist activity at human PTH1 receptor expressed in human GP2.3 cells assessed as induction of cAMP after 12 to 20 mins by luciferase reporter gene assay.

On to `CC[C@H](C)[C@H](NC(=O)[C@H](CC(C)C)NC(=O)[C@H]1CNC[C@@H]1NC(=O)[C@H](Cc1c[nH]cn1)NC(=O)[C@H](CC(C)C)NC(=O)[C@H](Cc1ccccc1)NC(=O)[C@H]1CNC[C@@H]1NC(=O)[C@H](CCCNC(=N)N)NC(=O)[C@H](CCCNC(=N)N)NC(=O)[C@H](CCCNC(=N)N)NC(=O)[C@H]1CCC[C@@H]1NC(=O)[C@H](CC(=O)O)NC(=O)[C@H](CCC(N)=O)NC(=O)[C@@H](NC(=O)[C@H]1CCC[C@@H]1NC(=O)[C@H](CCCCN)NC(=O)CNC(=O)[C@H](CCCCN)NC(=O)[C@H](CC(=O)O)NC(=O)[C@H](Cc1c[nH]cn1)NC(=O)[C@H](CC(C)C)NC(=O)[C@H](CC(C)C)NC(=O)[C@H](CCC(N)=O)NC(=O)[C@H](Cc1c[nH]cn1)NC(=O)[C@H](CCC(=O)O)NC(=O)[C@H](CO)NC(=O)[C@@H](NC(=O)[C@H](C)N)C(C)C)[C@@H](C)CC)C(=O)N[C@@H](C)C(=O)N[C@H]1CCC[C@@H]1C(=O)N[C@H](C(=O)N[C@@H](Cc1c[nH]cn1)C(=O)N[C@H](C(=O)N[C@H]1CCC[C@@H]1C(N)=O)[C@@H](C)O)[C@@H](C)CC`, for which the EC50 (usually the concentration at which the effect is half-maximal) came to 0.65 nM.
